Marks after values point to notes of the source that are not given here.
Assays:
[1] = Drilled well water softening and purification (Example 15)
Procedure: Drilled well sample 1 (DW 1) was nearby Tampere and sample 2 (DW 2) nearby Turku. Samples (100 ml each) were stirred with 1a (1.0 g) for 24 h. The initial and final metal concentrations in solutions of selected metals were determined by using ICP-AES analysis after filtration and results are shown in Table 9.

[2] = Separation of silver with complexation agent by HCl elution (Example 20); details: for Concentration after 1a: mixture of Ag^+, 1a 10 g, 48 h; for End concentration in 1a: after HCl elutions; for Metals in 0.01M HCl: elution of loaded 1a with 0.01 M HCl (60 ml); for Metals in 0.1M HCl: elution of loaded 1a with 0.1 M HCl (60 ml); for Metals in 1M HCl: elution of loaded 1a with 1 M HCl (60 ml)
Procedure: A mixture of Cu(NO3)2×3H2O (20 ml, 0.1 M), AgNO3 (20 ml, 0.1 M), Fe(NO3)3 (20 ml, 0.1 M), water (40 ml) and 1a (10 g) were stirred for 48 h at room temperature. Solids were collected to sintered disc (porosity G-4), washed with water (60 ml) and eluted with 0.01 M (60 ml), 0.1 M (60 ml) and 1 M (60 ml) HCl solutions. Amounts of each metals in eluted HCl solutions were determined by AAS using standard procedures.

[3] = Separation of Cr(III) from Cr(VI) (Example 14); details: pH 4.0, 1a 100 mg
Procedure: A water solution (110 ml) containing known amount of single cationic element or elements, typically 0.5-200 ppm, was prepared from Merch Titrisol® standard solution. After adjusting pH by using acid (e.g. HCl or HNO3) or base (e.g. NaOH) to desired initial value, sample A (10 ml) was taken followed by adding 100 mg of selected solid complexation agent. The mixture was stirred at room temperature for 24 h and sample B (10 ml) was taken. Samples A and B were filtrated separately trough 0.2 μm syringe filter and the concentration of the studied element or elements in both solution was determined by using atomic absorption spectrophotometer. The expulsion percent was determined from the concentration differences between the sample solutions A and B.
An aqueous solution (100 ml) containing 1.72 ppm of Cr(III) and 1.89 ppm of Cr(VI) was prepared from Merch Titrisol® standard solution and pH was adjusted to 4.0. Following the general procedure described earlier the mixture was treated with 1a (100 mg) and expulsion per for Cr(III) and Cr(VI) were calculated to be 97.0% and 0%, respectively.

[4] = Simultaneous collection of Ni^2+, Zn^2+, Eu^3+, La^3+, Nd^3+, Y^3+, UO2^2+, Nb^5+ and Zr^4+ from TS 5 (Example 22); details: TS 5, 1a 1 g/100 ml, 24 h
Procedure: A test solution containing 1-15 mg/l of Al^3+, Fe^2/3+, Mg^2+, Mn^2+, Ni^2+ and Zn^2+; 0.1-0.9 mg/l of Ca^2+ and Na^+; and trace amount of other Cr^3+, Co^2+, Cu^2+, Eu^3+, La^3+, Nd^3+, Y^3+, UO2^2+ and Nb^5+ cations were prepared.
TS 5 (100 ml) was stirred with 1a (1 g) at room temperature for 24 h. After filtration trough 0.2 μm syringe filter metal concentration of Ni^2+, Zn^2+, Eu^3+, La^3+, Nd^3+, Y^3+, UO2^2+, Nb^5+ and Zr^4+ were determined by using ICP-AES and ICP-MS methods. The expulsions percent was calculated for each element from the concentration difference between initial and final solutions and the experimental results are given in Table 16.

## NCCCCCCCCCCC(O)(P(=O)(O)O)P(=O)(O)O [Compound 1a, 11-Amino-1-hydroxyundecane-1,1-diyldiphosphonic acid]
[1]; DW 1 (pH 7.04), Al^3+, initial <0.05 mg/l
  Concentration after 1a: <0.05 mg/L
[1]; DW 1 (pH 7.04), Ca^2+, initial 43.8 mg/l
  Concentration after 1a: 0.232 mg/L
[1]; DW 1 (pH 7.04), Cu^2+, initial <0.05 mg/l
  Concentration after 1a: <0.05 mg/L
[1]; DW 1 (pH 7.04), Mg^2+, initial 10.9 mg/l
  Concentration after 1a: <0.1^4) mg/l
[1]; DW 1 (pH 7.04), Mn^2+, initial 0.095 mg/l
  Concentration after 1a: <0.02^4) mg/l
[1]; DW 1 (pH 7.04), Na^+, initial 15.2 mg/l
  Concentration after 1a: 13.5 mg/L
[1]; DW 1 (pH 7.04), Sr^2+, initial 0.097 mg/l
  Concentration after 1a: <0.02^4) mg/l
[1]; DW 1 (pH 7.04), Zn^2+, initial 0.044 mg/l
  Concentration after 1a: 0.018 mg/L
[1]; DW 1, Ca^2+
  Expulsion [%]: 99%
[1]; DW 1, Mg^2+
  Expulsion [%]: ≥ 99^5) %
[1]; DW 1, Mn^2+
  Expulsion [%]: ≥ 79^5) %
[1]; DW 1, Na^+
  Expulsion [%]: 11%
[1]; DW 1, Sr^2+
  Expulsion [%]: ≥ 79^5) %
[1]; DW 1, Zn^2+
  Expulsion [%]: ≥ 59^5) %
[1]; DW 2 (pH 6.97), Al^3+, initial 0.107 mg/l
  Concentration after 1a: <0.05^4) mg/l
[1]; DW 2 (pH 6.97), Ca^2+, initial 22.2 mg/l
  Concentration after 1a: 0.479 mg/L
[1]; DW 2 (pH 6.97), Cu^2+, initial 0.271 mg/l
  Concentration after 1a: <0.05^4) mg/l
[1]; DW 2 (pH 6.97), Mg^2+, initial 13.60 mg/l
  Concentration after 1a: 0.102 mg/L
[1]; DW 2 (pH 6.97), Mn^2+, initial <0.02 mg/l
  Concentration after 1a: <0.02 mg/L
[1]; DW 2 (pH 6.97), Na^+, initial 19.0 mg/l
  Concentration after 1a: 17.3 mg/L
[1]; DW 2 (pH 6.97), Sr^2+, initial 0.113 mg/l
  Concentration after 1a: 0.029 mg/L
[1]; DW 2 (pH 6.97), Zn^2+, initial 0.284 mg/l
  Concentration after 1a: 0.026 mg/L
[1]; DW 2, Al^3+
  Expulsion [%]: ≥ 53^5) %
[1]; DW 2, Ca^2+
  Expulsion [%]: 98%
[1]; DW 2, Cu^2+
  Expulsion [%]: ≥ 82^5) %
[1]; DW 2, Mg^2+
  Expulsion [%]: 99%
[1]; DW 2, Na^+
  Expulsion [%]: 9%
[1]; DW 2, Sr^2+
  Expulsion [%]: 74%
[1]; DW 2, Zn^2+
  Expulsion [%]: 91%
[2]; Ag^+
  Amounts of metals in 1a: 1320 mg/L
  End concentration in 1a: 1300 mg/L
  Metals in 0.01M HCl: 10 mg/L
  Metals in 0.1M HCl: 0 mg/L
  Metals in 1M HCl: 10 mg/L
[2]; Ag^+, initial 2050 mg/l, Cu^2+, Fe^3+
  Concentration after 1a: 730 mg/L
[2]; Cu^2+
  Amounts of metals in 1a: 210 mg/L
  End concentration in 1a: 0 mg/L
  Metals in 0.01M HCl: 0 mg/L
  Metals in 0.1M HCl: 10 mg/L
  Metals in 1M HCl: 200 mg/L
[2]; Cu^2+, initial 1310 mg/l, Cu^2+, Fe^3+
  Concentration after 1a: 1100 mg/L
[2]; Fe^3+
  Amounts of metals in 1a: 80 mg/L
  End concentration in 1a: 0 mg/L
  Metals in 0.01M HCl: 10 mg/L
  Metals in 0.1M HCl: 10 mg/L
  Metals in 1M HCl: 60 mg/L
[2]; Fe^3+, initial 1040 mg/l, Cu^2+, Fe^3+
  Concentration after 1a: 960 mg/L
[3]; 1.72 ppm Cr(III) with 1.89 ppm Cr(VI)
  expulsion per cent for Cr(III): 97.0%
[3]; 1.89 ppm Cr(VI) with 1.72 ppm Cr(III)
  expulsion per cent for Cr(VI): 0%
[4]; Eu^3+
  Expulsion [%]: 98%
[4]; La^3+
  Expulsion [%]: 100%
[4]; Nb^5+
  Expulsion [%]: 100%
[4]; Nd^3+
  Expulsion [%]: 100%
[4]; Ni^2+
  Expulsion [%]: 72%
[4]; UO2^2+
  Expulsion [%]: 100%
[4]; Y^3+
  Expulsion [%]: 100%
[4]; Zn^2+
  Expulsion [%]: 97%
[4]; Zr^4+
  Expulsion [%]: 100%
